Key:
COX-2 [1] = test: Hippocampal COX-2 expression in mice (immunoblot); assay type: in vivo
COX-2 [2] = test: COX-2 expression in neuronal and astroglial cell-enriched cultures; assay type: cell-based; settings: assayed 12 hr after treatments
Description: Relative pure hippocampal neurons (astroglial cells<2%), mixed neurons and astroglial cells (astroglial cells ˜10%), and astroglial cell-enriched (astroglial cells>95%), and NG108-15 cell cultures were made as described previously (Sang et al, 2005; Zhang and Chen, 2008).
Primary hippocampal neurons (astroglial cells<2%), mixed neurons and astroglial cells (astroglial cells ˜10%), astroglial cell-enriched (astroglial cells>95%) and NG108-15 cells were cultured as described previously (Sang et al, 2005; Zhang and Chen, 2008). The extent of neurons and astroglial cells in culture were controlled by different treatments, which was estimated by using immunostaining with NeuN, a neuronal marker, glial fibrillary acidic protein (GFAP), an astrocytic marker, and OX-42, a microglial marker, in conjunction with DAPI staining.

PGE2 [3] = test: PGE2 assay in hippocampal tissue (enzyme immunoassay); assay type: in vivo, mice
Source text: PGE2 in hippocampal tissue was detected using PGE2 enzyme immunoassay kit (Cayman Chemical, Ann Arbor, Mich.) according to the procedure described by the manufacturer (Zhang and Chen, 2008).

PGE2 [4] = settings: earlier studies (Burstein et al., 1989; Fairbairn and Pickens; Perez-Reyes et al., 1991); cited from earlier work
[5] = system: hippocampal LTP at CA3-CA1 and perforant path synapses; test: Hippocampal LTP (fEPSP recordings in slices, theta-burst stimulation); assay type: in vivo, mice
Description: Hippocampal LTP both at CA3-CA1 and perforant path synapses were recorded in acutely hippocampal slices and induced by a theta-burst stimulation (TBS) as described previously (Hoffman et al., 2007).
Hippocampal slices were prepared from mice as described previously (Chen et al., 2002; Chen et al., 2012; Fan et al., 2010). Briefly, after decapitation, brains were rapidly removed and placed in cold oxygenated (95% O2, 5% CO2) artificial cerebrospinal fluid (ACSF) containing: 125.0 NaCl, 2.5 KCl, 1.0 MgCl2, 25.0 NaHCO3, 1.25 NaH2PO4, 2.0 CaCl2, 25.0 glucose, 3 pyruvic acid, and 1 ascorbic acid. Slices were cut at a thickness of 350-400 μm and transferred to a holding chamber in an incubator containing ACSF at 36° C. for 0.5 to 1 hour, and maintained in an incubator containing oxygenated ACSF at room temperature (˜22-24° C.) for >1.5 h before recordings. Slices were then transferred to a recording chamber where they were continuously perfused with 95% O2, 5% CO2-saturated standard ACSF at ˜32-34° C. Individual pyramidal and dentate granule neurons were viewed with an upright microscope (Olympus BX51WI) fitted with a 60× water-immersion objective and differential interference contrast (DIC) optics.
Field EPSP (fEPSP) recordings both at CA3-CA1 and perforant path synapses in response to stimuli at a frequency of 0.05 Hz were made using an Axoclamp-2B patch-clamp amplifier (Molecular Devices, CA) in bridge mode. Recording pipettes were pulled from borosilicate glass with a micropipette puller (Sutter Instrument), filled with artificial ACSF (2-4 MΩ). […]

spatial memory = test: Morris water maze test (spatial memory); assay type: in vivo, mice; settings: NS398 10 mg/kg + Δ^9-THC 10 mg/kg once a day for 7 days
Description: (§1) The classic Morris water maze and fear conditioning tests were performed to determine spatial and fear memory as described previously (Chen et al., 2012). The ‘open field’ test was conducted to detect the locomotor activity and the bar test was used to detect catalepsy (Egashira et al., 2007).
The classic Morris water maze test was used to determine spatial memory as described previously (Chen et al., 2012). A circular water tank (diameter 120 cm and 75 cm in high) was filled with water and the water was made opaque with non-toxic white paint. A round platform (diameter 15 cm) was hidden 1 cm beneath the surface of the water at the center of a given quadrant of the water tank. COX-2 KO and WT mice received training in the Morris water maze for 5 days without any treatments (naïve). […] For each trial, the mouse was released from the wall of the tank and allowed to search, find, and stand on the platform for 10 seconds within the 60-second trial period. […] During the probe test, the platform was removed from the pool, and the task performances were recorded for 60 seconds by a video-camera and the task performances, including swimming paths, speed, and time spent in each quadrant using an EthoVision video tracking system (Noldus). The time spent in each quadrant was analyzed.

fear memory = test: Fear conditioning test (contextual memory); assay type: in vivo, mice; settings: NS398 10 mg/kg + Δ^9-THC 10 mg/kg once a day for 7 days
Description: as §1
Hippocampus-dependent contextual memory was determined using a fear-conditioning working-station (Coulbourn Instruments, Allentown, Pa.) and a one-trial protocol as describe previously (Chen et al., 2006a; 2006b). Mice were individually put into the shock chamber and allowed to freely explore the environment for 150 seconds. Immediately after this, a tone at 90 dB and 2,800 Hz (CS) was delivered for 30 seconds, and at the last 2 seconds a foot shock at 0.8 mA was delivered to the mice for 2 seconds (US). After the pairing of CS/US, mice were allowed to stay in the chamber for another 30 seconds and then returned to their home cages. Then the animals started receiving vehicle, Δ^9-THC (10 mg/kg), NS398 (10 mg/kg), Δ^9-THC+NS398 once a day for 7 days. Fear memory test was conducted 24 hours after the cessation of the last injections. For contextual conditioning, mice were individually put back into the chamber where they received the shock and the freezing response was recorded for 5 minutes with a sampling method at an interval of 5 seconds. […]

[6] = system: dendritic spines of CA1 pyramidal neurons; test: Two-photon imaging of dendritic spines in CA1 pyramidal neurons; assay type: in vivo, mice; settings: NS398+Δ^9-THC
Description: Morphology of dendritic spines in hippocampal CA1 pyramidal neurons was determined in GFP-expressing transgenic mice using a two-photon laser scanning microscope as described previously (Chen et al., 2012). Shape, size, and density of spines were measured from the three-dimensional reconstructions using NeuronStudio Version 0.9.92.
Morphology of dendritic spines in hippocampal CA1 pyramidal neurons was determined in GFP-expressing transgenic mice treated with vehicle, Δ^9-THC or NS398+Δ^9-THC using a two-photon laser scanning microscope (Chameleon hands-free ultrafast Ti: sapphire laser with an Olympus scan head) with Olympus FLUOVIEW 300 software (Chen et al., 2012). Shape (thin, mushroom, or stubby), size, density, and volume of spines were measured from the three-dimensional reconstructions (Z stacks: 1μ step for the whole cell and 0.1μ step for a segment of dendrites) using AutoQuant X2 or 3D deconvolution plugin of Image J (http://bigwww.epfl.ch/algorithms/deconvolutionlab) and NeuronStudio (for 3D reconstruction of imaged dendritic spines, Version 0.9.92; http://research.mssm.edu/cnic/tools-ns.html, CNIC, Mount Sinai School of Medicine). […] The following parameters were used in analyzing and quantifying spines using NeuronStudio: Voxel size was set as 0.029*0.029*0.3 μm. […]

[7] = system: synaptic release of glutamate; test: Miniature spontaneous EPSCs (mEPSCs) in cultured hippocampal neurons; assay type: cell-based; settings: NS398 10 μM + Δ^9-THC 3 μM; 24 hrs
GluA1, GluN2A, GluN2B = test: Immunostaining of synaptic and extrasynaptic glutamate receptor subunits in hippocampal CA1; settings: NS398+Δ^9-THC

In the case of Cc1c(C(=O)NN2CCCCC2)nn(-c2ccc(Cl)cc2Cl)c1-c1ccc(Cl)cc1 [Rimonabant], the “effect on Δ^9-THC-induced increase in COX-2 in the hippocampus” value (COX-2 [1]; RIM 5 mg/kg 30 min prior to Δ^9-THC 10 mg/kg, detected 4 hr after Δ^9-THC) is reported as “blocked” and the “effect on Δ^9-THC-induced increase in COX-2 in neurons and astroglial cells in culture” value (COX-2 [2]) is reported as “blocked”.

In the case of CCCCCCC(C)(C)c1ccc([C@@H]2C[C@H](O)CC[C@H]2CCCO)c(O)c1 [CP55,940], the “hippocampal COX-2 expression after cannabinoid injection” value (COX-2 [1]; single i.p. injection, CP55,940 10 mg/kg, detected 4 hrs) is reported as “more pronounced effects on COX-2 expression and PGE2 synthesis” and the “hippocampal PGE2 production after cannabinoid injection” value (PGE2 [3]; 10 mg/kg, detected 4 hrs after injection) is reported as “more pronounced effects on COX-2 expression and PGE2 synthesis”.

For COc1ccc2c(c1)c(CC(=O)O)c(C)n2C(=O)c1ccc(Cl)cc1 [indomethacin], the “effect on marijuana- or Δ^9-THC-induced elevation of PGE2 in circulation and the brain” value (PGE2 [4]) is given as “could be antagonized”.

In the case of CS(=O)(=O)Nc1ccc([N+](=O)[O-])cc1OC1CCCCC1 [NS398], the “effect on CP55,940-induced increase in PGE2” value (PGE2 [3]; NS398 10 mg/kg 30 min prior to CP 10 mg/kg) is reported as “could be blocked”, the “effect on LPS-reduced hippocampal LTP” value ([5]; LPS 3 mg/kg + NS398 10 mg/kg once a day for 7 days) is reported as “prevented” and the “effect on Δ^9-THC-decreased hippocampal LTP” value ([5]; NS398 10 mg/kg 30 min before Δ^9-THC 10 mg/kg, 7 days, CA3-CA1 and perforant path) is reported as “rescued decreased hippocampal LTP”. For the same compound, the “effect on Δ^9-THC-impaired spatial memory” value (spatial memory) was “occluded by COX-2 inhibition”, the “effect on Δ^9-THC-impaired fear memory” value (fear memory) was “attenuated by COX-2 inhibition” and the “effect on Δ^9-THC-decreased dendritic spine density” value [6] was “prevented by inhibition of COX-2”. For the same compound, the “effect on Δ^9-THC-enhanced synaptic release of glutamate” value [7] was “blocked by inhibition of COX-2” and the “effect on Δ^9-THC-decreased glutamate receptor expression” value (GluA1, GluN2A, GluN2B) was “prevented by inhibition of COX-2”.

Source: patent US9833433B1, “Compositions, methods of use, and methods of treatment” (priority 2013, dated 2017)
